Test results reported in patent US6936723B2, “Synthetic salicylihalamides, apicularens and derivatives thereof” (Board of Regents, The University of Texas System, priority 2000, dated 2005).
Read-outs that look alike come from different tables or passages of the source. Each block holds one compound with its values, some of them ahead of it.

Legend:
H175 = assay: Growth inhibition of tumor cell lines compared to TAXOL: H175; assay type: cell-based
Procedure: (§1) In addition, the ability of compounds 323a/c and 343 to inhibit growth of a number of tumor cell lines was tested and compared to TAXOL's ability to inhibit growth of these tumor cell lines.

H358 = assay: Growth inhibition of tumor cell lines compared to TAXOL: H358; assay type: cell-based; conditions: Homo sapiens, NCI-H358
Procedure: as §1

[1] = target: T1, purified reconstituted V-ATPase from bovine brain (Bos taurus, UniProt P23956+P61420+Q29466+Q2TA24); assay: Inhibition of purified reconstituted V-ATPase (proton pumping); assay type: biochemical
T1 construct: from tissue; host or cells: bovine brain
Source text: Therefore, the present invention provides a method for inhibiting the proton-pumping activity of V-ATPase by contacting V-ATPase, either in vitro or in vivo with the compounds of the present invention. […] See Boyd, M. R. et al., J Pharmacol. Exp. Ther. 297, 114-120 (2001); see also, PCT publication WO 00/51589 of Boyd et al. V-ATPase is composed of an ATPase domain and a proton translocating membraneous channel. […] See Crider, Xie and Stone, J. Biol. Chem. 269:17379-17381 (1994) for the experimental procedure for binding. […] See Example 7 and Table 5 below. See also Bill. Crider, Xie and Stone, J Biol. Chem. 269:17379-17381 (1994).
Others in the art typically use crude membrane preparations to assay V-ATPase activity.

H1264 = assay: Growth inhibition of tumor cell lines compared to TAXOL: H1264; assay type: cell-based
Procedure: as §1

H1299 = assay: Growth inhibition of tumor cell lines compared to TAXOL: H1299; assay type: cell-based; conditions: Homo sapiens, NCI-H1299
Procedure: as §1

H2009 = assay: Growth inhibition of tumor cell lines compared to TAXOL: H2009; assay type: cell-based; conditions: Homo sapiens, NCI-H2009
Procedure: as §1

NCI 60-cell line panel = assay: NCI 60-cell line human tumor screen (sulforhodamine B); assay type: cell-based; conditions: 48 hours incubation, 10^−6 to 10^−10 molar
Source text: The NCI 60-cell line human tumor screen is a measure of the effectiveness of a compound for inhibiting or killing various human cancers. It is a set of 60 different cancer cell lines against which chemical compounds can be tested against to determine if the compound has anti-cancer activity. Each compound has an individual “fingerprint” based on effectiveness in killing each of the 60 cancer cell lines.
The anti-cancer activity of the synthesized (+)- and (−)-salicylihalamide-A compounds of the present invention (compounds 78 in FIG. 10 and 301a/301c in FIG. 14.) was indistinguishable. […] Salicylihalamide derivatives, showing increased stability over natural salicylihalamide, were tested in the NCI 60 cell-line screen. This screen is an art recognized model. Prior to assay, synthesized compounds were stored in dimethylsulfoxide at −70° C. Five different test concentrations of each compound were prepared by diluting the stock solution into complete medium. Sample concentrations were 2× the final concentration and range from 10^−6 and 10^−10 molar. An aliquot of each concentration of each compound was added to separate microtiter wells containing the respective cell lines in culture medium. The plates were incubated for 48 hours at 37° C. with 5% CO2 and 100% humidity. Adherent cells were fixed by addition of cold 50% trichloracetic acid and incubation at 4° C. for 60 minutes. Suspended cells were fixed to the bottom of the well by addition of 80% trichloracetic acid. The supernatant was removed from each well and then each well was washed with deionized water and allowed to dry. Sulforhodamine B solution was added to each well and allowed to incubate for 10 minutes at room temperature. Unbound sulforhodamine B was removed by washing with 1% acetic acid. The wells were allowed to dry. Bound sulforhodamine B was solubilized using 10 mM Tris base and the optical density at 515 nanometers was determined.

[2] = tested on: human melanoma cell line SK-MEL-5; assay: Growth inhibition of the SK-MEL-5 human melanoma cell line (MTT assay); assay type: cell-based; conditions: for GI50: Homo sapiens; for growth inhibitory activity in the cell-based assay: SK-MEL-5 cell-based assay
Procedure: A cell-based assay looking for growth inhibition of the SK-MEL 5 human melanoma cell line was performed.

H2058 = assay: Growth inhibition of tumor cell lines compared to TAXOL: H2058; assay type: cell-based
Procedure: as §1

[3] = target: trans-membraneous proton channel domain of V-ATPase (Bos taurus, UniProt P23956+P61420+Q29466+Q2TA24); assay: Incubation with V-ATPase domains independently: proton channel domain; assay type: biochemical
Chain of trans-membraneous proton channel domain of V-ATPase (P61420 whole entry, other chains not shown, the tested form may be a part): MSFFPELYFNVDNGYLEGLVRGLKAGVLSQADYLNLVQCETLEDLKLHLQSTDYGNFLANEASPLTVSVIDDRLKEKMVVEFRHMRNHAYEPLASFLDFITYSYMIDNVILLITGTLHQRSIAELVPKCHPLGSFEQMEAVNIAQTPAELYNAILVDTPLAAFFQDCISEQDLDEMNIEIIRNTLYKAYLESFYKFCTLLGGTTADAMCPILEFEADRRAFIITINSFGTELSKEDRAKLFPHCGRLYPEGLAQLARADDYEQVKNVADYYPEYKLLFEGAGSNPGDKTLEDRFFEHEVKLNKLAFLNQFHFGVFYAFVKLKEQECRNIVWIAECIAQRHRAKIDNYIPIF
Chain of trans-membraneous proton channel domain of V-ATPase (P23956 whole entry, other chains not shown, the tested form may be a part): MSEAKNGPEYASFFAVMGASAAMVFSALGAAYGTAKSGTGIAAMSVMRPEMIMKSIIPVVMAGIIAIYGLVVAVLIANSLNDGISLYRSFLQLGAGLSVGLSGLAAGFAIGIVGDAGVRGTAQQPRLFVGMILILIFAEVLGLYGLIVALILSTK
Chain of trans-membraneous proton channel domain of V-ATPase (Q29466 whole entry, other chains not shown, the tested form may be a part): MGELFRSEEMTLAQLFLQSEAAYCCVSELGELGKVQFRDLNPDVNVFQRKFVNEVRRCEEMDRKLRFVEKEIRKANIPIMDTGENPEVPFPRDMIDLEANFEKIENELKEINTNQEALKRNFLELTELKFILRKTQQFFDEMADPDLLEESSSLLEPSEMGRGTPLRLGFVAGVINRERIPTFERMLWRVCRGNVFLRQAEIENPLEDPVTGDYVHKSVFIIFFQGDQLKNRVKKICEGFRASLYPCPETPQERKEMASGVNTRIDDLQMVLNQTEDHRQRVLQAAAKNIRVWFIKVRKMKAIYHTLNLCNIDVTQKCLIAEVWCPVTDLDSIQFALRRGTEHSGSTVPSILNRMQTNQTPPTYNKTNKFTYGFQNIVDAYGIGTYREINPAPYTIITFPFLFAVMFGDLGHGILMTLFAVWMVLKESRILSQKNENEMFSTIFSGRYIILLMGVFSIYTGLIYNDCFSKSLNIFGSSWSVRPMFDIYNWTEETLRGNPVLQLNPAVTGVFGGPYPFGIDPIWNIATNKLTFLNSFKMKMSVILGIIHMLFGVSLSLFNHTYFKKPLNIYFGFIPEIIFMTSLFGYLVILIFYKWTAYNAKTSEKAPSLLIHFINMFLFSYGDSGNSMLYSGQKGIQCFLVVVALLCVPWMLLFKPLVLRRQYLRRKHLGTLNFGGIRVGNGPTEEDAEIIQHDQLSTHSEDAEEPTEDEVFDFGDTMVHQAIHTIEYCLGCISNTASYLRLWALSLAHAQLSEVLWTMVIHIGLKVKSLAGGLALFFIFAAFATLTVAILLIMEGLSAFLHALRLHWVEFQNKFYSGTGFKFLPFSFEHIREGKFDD
Chain of trans-membraneous proton channel domain of V-ATPase (Q2TA24 whole entry, other chains not shown, the tested form may be a part): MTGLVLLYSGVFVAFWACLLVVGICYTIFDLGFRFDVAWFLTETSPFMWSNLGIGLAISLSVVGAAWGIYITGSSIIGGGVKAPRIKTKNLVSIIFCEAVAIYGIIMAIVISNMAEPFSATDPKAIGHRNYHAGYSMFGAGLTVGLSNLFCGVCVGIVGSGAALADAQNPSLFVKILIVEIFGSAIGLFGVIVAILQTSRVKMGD
Source text: Therefore, the present invention provides a method for inhibiting the proton-pumping activity of V-ATPase by contacting V-ATPase, either in vitro or in vivo with the compounds of the present invention. Inhibition of the proton-pumping activity of V-ATPase is useful, inter alia, for the treatment and prevention of cancer and osteoporosis. […] See Boyd, M. R. et al., J Pharmacol. Exp. Ther. 297, 114-120 (2001); see also, PCT publication WO 00/51589 of Boyd et al. V-ATPase is composed of an ATPase domain and a proton translocating membraneous channel. […] See Crider, Xie and Stone, J. Biol. Chem. 269:17379-17381 (1994) for the experimental procedure for binding. This was shown by incubating select compounds of the present invention with the domains independently and showing that 70% of the channel activity was inhibited at 1 nM of the compound while there was virtually no interference with ATPase activity at the same concentration. See Example 7 and Table 5 below. See also Bill. Crider, Xie and Stone, J Biol. Chem. 269:17379-17381 (1994).

SK-MEL-28 cells = assay: Anti-cancer activity against SK-MEL-28 cells; assay type: cell-based, human
Source text: The inventor has accomplished the first synthesis of both […] and (−)-salicylihalamide A. The synthesis utilizes a highly efficient, trans-selective ring-closing olefin metathesis for the assembly of the benzolactone skeleton and can be readily adapted to obtain a variety of analogs. […] This cell line is one of the cell lines in the NCI 60 cell line screen.
The absolute configuration of natural salicylihalamide A (1a) was originally misassigned in Boyd et al., 1997. The correct configuration is represented by structure 89. The ultimate proof for this assignment came from a crystallographic analysis of a p-bromobenzoate derivative of salicylihalamide 90, prepared from 73 in a manner similar to the synthesis of 74. […] (−)-salicylihalamide A does have chemotherapeutic activity. […] This cell line is one of the cell lines in the NCI 60 cell line screen.

[4] = 48 h, SK-MEL-5, growth determined 2 days after addition by MTT assay, triplicate assays at 4 concentrations, read-out: GI50
[5] = purified reconstituted V-ATPase from bovine brain, inhibition of proton pumping, read-out: IC50

Compound: CC/C=C\C=C/C(=O)N/C=C/C[C@H]1C[C@@H](O)[C@@H](C)C/C=C/Cc2cccc(O)c2C(=O)O1 [301a/301c]
GI50 (H175): 0.2 nM
GI50 (H358): 1.6 nM
IC50 [1]: 0.34 nM
GI50 (H1264): 31.6 nM
GI50 (H1299): 3.2 nM
GI50 (H2009): 2 nM
activity / differential cytotoxicity profile in the NCI 60-cell line screen (NCI 60-cell line panel; listed as 1:1 mixture of salicylihalamide A (1) and C22-E isomer 211): indistinguishable, within the limits of experimental error, from natural salicylihalamide A
GI50 ([2]; SK-MEL-5, 48 h): 30 nM
GI50 (H2058): 3.2 nM

Compound: CCC=CC=CC(=O)NC=CCC1CC2CC(O)CC(Cc3cccc(O)c3C(=O)O1)O2 (centres unmarked) [Apicularen A]
IC50 [1]: < 1 nM
GI50 [2, 4]: 6 nM

Compound: CO/C1=C\C(C)=C\[C@@H](C)[C@@H](O)[C@@H](C)C/C(C)=C/C=C/[C@H](OC)[C@@H]([C@@H](C)[C@@H](O)[C@H](C)[C@@]2(O)C[C@@H](O)[C@H](C)[C@@H](C(C)C)O2)OC1=O [Bafilomycin A, reference compound]
IC50 [1, 5]: 3.1 nM

Compound: CC/C=C\C=C/C(=O)N/C=C/C[C@H]1C[C@@H](O)[C@@H](C)C/C=C/Cc2cccc(O)c2C(=O)O1 [Compound 301a, salicylihalamide A]
binding site on V-ATPase [3]: membrane spanning Vo proton channel
mode of V-ATPase inhibition (reversibility) [1]: reversible inhibitor
anti-cancer activity against SK-MEL-28 cells (SK-MEL-28 cells; at 10 nM): active
activity / differential cytotoxicity profile in the NCI 60-cell line screen (NCI 60-cell line panel): differential cytotoxicity profile undistinguishable from the natural product

Compound: C=CCOC(=O)/C=C/CC1C[C@@H](O)[C@@H](C)C/C=C/Cc2cccc(O)c2C(=O)O1 (some centres unmarked) [Compound 335b]
IC50 [1, 5]: 230 nM
GI50 [2, 4]: > 20000 nM
growth inhibitory activity in the cell-based assay [2]: completely inactive

Compound: CC/C=C\C=C/C(=O)N(/C=C/C[C@H]1C[C@@H](O)[C@@H](C)C/C=C/Cc2cccc(O)c2C(=O)O1)C(=O)N/C=C/C[C@H]1C[C@@H](O)[C@@H](C)C/C=C/Cc2cccc(O)c2C(=O)O1 [Compound 343]
GI50 (H175): 0.2 nM
GI50 (H358): 10 nM
IC50 [1]: 0.37 nM
GI50 (H1264): 31.6 nM
GI50 (H1299): 5 nM
GI50 (H2009): 1.6 nM
GI50 ([2]; SK-MEL-5, 48 h): 40 nM
GI50 (H2058): 6.3 nM

Compound: CCCCCCC(=O)N(/C=C/C[C@H]1C[C@@H](O)[C@@H](C)C/C=C/Cc2cccc(O)c2C(=O)O1)C(=O)N/C=C/C[C@H]1C[C@@H](O)[C@@H](C)C/C=C/Cc2cccc(O)c2C(=O)O1 [Compound 345]
IC50 [1]: 3 nM
GI50 [2, 4]: 600 nM

Compound: CCCCCCC(=O)N/C=C/C[C@H]1C[C@@H](O)[C@@H](C)C/C=C/Cc2cccc(O)c2C(=O)O1 [Compound 346]
IC50 [1]: 0.8 nM
GI50 [2, 4]: 380 nM

Compound: C[C@H]1C/C=C/Cc2cccc(O)c2C(=O)OC(C/C=C/NC(=O)C#Cc2ccccc2)C[C@H]1O (some centres unmarked) [Compound 349]
IC50 [1]: 0.75 nM
GI50 [2, 4]: 300 nM

Compound: CCCCC#CC(=O)N/C=C/CC1C[C@@H](O)[C@@H](C)C/C=C/Cc2cccc(O)c2C(=O)O1 (some centres unmarked) [Compound 350]
IC50 [1]: 1 nM
GI50 [2, 4]: 300 nM

Compound: CCCCCOC(=O)N/C=C/C[C@H]1C[C@@H](O)[C@@H](C)C/C=C/Cc2cccc(O)c2C(=O)O1 [Compound 351]
IC50 [1]: 0.2 nM
GI50 [2, 4]: 500 nM

Compound: CCCCCSC(=O)N/C=C/CC1C[C@@H](O)[C@@H](C)C/C=C/Cc2cccc(O)c2C(=O)O1 (some centres unmarked) [Compound 352]
IC50 [1]: 1.8 nM
GI50 [2, 4]: 450 nM

Compound: CC(C)=CCC/C(C)=C/CC/C(C)=C/COC(=O)N/C=C/CC1C[C@@H](O)[C@@H](C)C/C=C/Cc2cccc(O)c2C(=O)O1 (some centres unmarked) [Compound 353]
IC50 [1]: > 1800 nM
GI50 [2, 4]: > 20000 nM

IC50 [1, 5]: > 1000 nM
GI50 [2, 4]: > 20000 nM
Compound: CCCCCCCC(=O)OCC[C@H]1C[C@@H](O)[C@@H](C)C/C=C/Cc2cccc(O)c2C(=O)O1 [Compound 355]
growth inhibitory activity in the cell-based assay [2]: completely inactive

Compound: CCCCCOC(=O)N/C=C/C[C@H]1C[C@@H](O)[C@@H](C)CCCCc2cccc(O)c2C(=O)O1 [Compound 361]
IC50 [1]: 9.3 nM
GI50 [2, 4]: 8000 nM
growth inhibitory activity in the cell-based assay [2]: retained a significant, although attenuated, level of growth inhibitory activity

Compound: CCCCCOC(=O)NCCC[C@H]1C[C@@H](O)[C@@H](C)CCCCc2cccc(O)c2C(=O)O1 [Compound 362]
IC50 [1]: 75.7 nM
GI50 [2, 4]: > 20000 nM
growth inhibitory activity in the cell-based assay [2]: completely abolished antiproliferative potential

Compound: CCCCCOC(=O)N/C=C/C[C@H]1C[C@@H](O)[C@@H](C)C/C=C/Cc2cccc(OC(=O)c3ccccc3)c2C(=O)O1 [Compound 366]
IC50 [1, 5]: 300 nM
GI50 [2, 4]: 1000 nM

GI50 (H175; cell line H175, read-out: GI50): 5 nM
GI50 (H358; cell line H358, read-out: GI50): 5 nM
GI50 (H1264; cell line H1264, read-out: GI50): 5 nM
GI50 (H1299; cell line H1299, read-out: GI50): 5 nM
GI50 (H2009; cell line H2009, read-out: GI50): 5 nM
GI50 (H2058; cell line H2058, read-out: GI50): 5 nM
Compound: CC(=O)O[C@H]1C(=O)[C@@]2(C)[C@H]([C@H](OC(=O)c3ccccc3)[C@]3(O)C[C@H](OC(=O)[C@H](O)[C@@H](NC(=O)c4ccccc4)c4ccccc4)C(C)=C1C3(C)C)[C@]1(OC(C)=O)CO[C@@H]1C[C@@H]2O [TAXOL, reference compound]

Compound: (+)-salicylihalamide A [Compound 87]
IC50 [1, 5]: 270 nM
anti-cancer activity against SK-MEL-28 cells (SK-MEL-28 cells; at 20 μM): inactive
activity / differential cytotoxicity profile in the NCI 60-cell line screen (NCI 60-cell line panel): completerly inactive
activity / differential cytotoxicity profile in the NCI 60-cell line screen (NCI 60-cell line panel; listed as ent-301a): devoid of growth inhibitory activity
